From US9206412B2, “Thioxothiazolidine inhibitors” (Colorado State University Research Foundation, priority 2012, dated 2015) come the findings set out here.

In data set [1] the test system is dengue type 2 virus subgenomic replicon (BHK-pD2hRucPac). The experiment in a line: Antiviral (replicon) assay, Renilla luciferase. The data set is classed as cell-based. Conditions: Table 2-1; read-out: Replicon Assay_EC50_M. For orientation: In antiviral work, replicon cells carry a viral genome segment that copies itself.
Data set [2] has as its target T1, dengue virus capping enzyme (Dengue virus type 2, UniProt P29990).
T1 sequence (P29990 2492-2758): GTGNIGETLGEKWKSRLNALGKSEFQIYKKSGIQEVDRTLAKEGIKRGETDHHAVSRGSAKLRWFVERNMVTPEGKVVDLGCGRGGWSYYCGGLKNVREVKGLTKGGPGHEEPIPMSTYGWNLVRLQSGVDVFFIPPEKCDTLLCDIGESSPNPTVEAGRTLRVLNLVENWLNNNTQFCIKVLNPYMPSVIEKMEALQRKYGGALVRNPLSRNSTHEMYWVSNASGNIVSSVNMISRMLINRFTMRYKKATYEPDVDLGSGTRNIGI
Put plainly: biochemical. The data set is classed as binding, dengue virus type 2 (strain 16681). Conditions: read-out: FP_DEN_Ki_AVG_DEN_M.

In a further data set the test system is BHK-pD2hRucPac cells. The experiment in a line: Cell viability (CellTiter-Glo) in replicon assay. Particulars: read-out: Replicon Assay_CC50_M; Table 2-1. (ATP-based viability assays read luminescence as a measure of living cells.)
Data set [3] has as its target yellow fever virus capping enzyme (Yellow fever virus, UniProt P03314). Put plainly: biochemical. In kind it is binding, yellow fever virus (strain 17D). Conditions: read-out: FP_YF_KI_AVG_YF_M.

Each structure is given as a SMILES string.

yellow fever virus capping enzyme, sequence (P03314 2507-2774 limits assumed): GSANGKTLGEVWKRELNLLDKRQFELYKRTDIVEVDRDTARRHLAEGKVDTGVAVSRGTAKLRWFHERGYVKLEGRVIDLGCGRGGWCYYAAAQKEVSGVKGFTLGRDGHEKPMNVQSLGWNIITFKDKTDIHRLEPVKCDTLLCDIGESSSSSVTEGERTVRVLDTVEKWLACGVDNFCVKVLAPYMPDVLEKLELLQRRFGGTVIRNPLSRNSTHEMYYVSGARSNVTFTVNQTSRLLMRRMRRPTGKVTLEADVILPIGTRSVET

In the case of `CCOc1cc(/C=C2\SC(=S)NC2=O)ccc1OS(=O)(=O)c1ccccc1[N+](=O)[O-]` [BG169], in data set [1], the EC50 stood at 26 µM. Also, the Ki in data set [2] and in data set [3] was 2 µM in each case. Besides, the CC50 in the data set with BHK-pD2hRucPac cells amounted to 29 µM.

With `CC(C)(C)c1cc(C=C2SC(=S)NC2=O)cc(C(C)(C)C)c1O` [BG179], the EC50 in data set [1] stood at 15 µM. The Ki in data set [2] was determined as 2 µM; in data set [3], 1 µM. In addition, the CC50 in the data set with BHK-pD2hRucPac cells is 20 µM.

Take `O=C(CN1C(=O)C(=Cc2ccccc2Cl)SC1=S)Nc1cccc(C(=O)O)c1` [BG123]: the EC50 in data set [1] was 75 µM. For the same compound, the Ki stood at 4 µM in data set [2] and 5 µM in data set [3]. Further, the CC50 in the data set with BHK-pD2hRucPac cells stood at 103 µM.

On to `O=C(CCN1C(=O)C(=Cc2ccc(Cl)cc2)SC1=S)Nc1cccc(C(=O)O)c1` [BG121], for which the EC50 in data set [1] is 33 µM. For the same compound, the Ki came to 3 µM in data set [2] and 5 µM in data set [3]. For the same compound, the CC50 in the data set with BHK-pD2hRucPac cells was determined as 39 µM.

On to `Cc1ccc(N2C(=O)/C(=C/c3ccccc3C(=O)O)SC2=S)c(C)c1` [BG130], for which the EC50 in data set [1] worked out at 61 µM. The Ki is 8 µM in data set [2] and 15 µM in data set [3]. Also, in the data set on BHK-pD2hRucPac cells, the CC50 amounted to 50 µM.

For the compound `CC(=C1SC(=S)NC1=O)c1ccc(C)cc1` [BG137], in data set [1], the EC50 came to 55 µM. Moreover, the results for the Ki in data set [2] and in data set [3] were 19 µM and 25 µM, respectively. Further, the CC50 in the data set on BHK-pD2hRucPac cells worked out at 67 µM.

Regarding `O=C(CCN1C(=O)C(=Cc2ccc(Cl)cc2)SC1=S)Nc1ccccc1C(=O)O` [BG120], in data set [1], the EC50 amounted to 23 µM. For the same compound, the Ki in data set [2] and in data set [3] was 2 µM throughout. The CC50 in the data set on BHK-pD2hRucPac cells stood at 31 µM.

For `O=C1NC(=S)SC1=Cc1ccccc1OS(=O)(=O)c1ccc([N+](=O)[O-])cc1` [BG127], the EC50 in data set [1] is 109 µM. The Ki in data set [2] was 5 µM; in data set [3], 6 µM. For the same compound, in the data set with BHK-pD2hRucPac cells, the CC50 was 40 µM.

On to `COc1ccc2nc(N3CCCCC3)c(C=C3SC(=S)NC3=O)cc2c1` [BG168], for which the EC50 in data set [1] amounted to 13 µM. The Ki in data set [2] and in data set [3] was 2 µM each time. The CC50 in the data set with BHK-pD2hRucPac cells stood at 12 µM.

For the compound `O=C(CN1C(=O)S/C(=C\c2ccccc2F)C1=O)Nc1ccccc1C(=O)O` [BG142], the EC50 in data set [1] is 102 µM. Further, the results for the Ki in data set [2] and in data set [3] were 23 µM and 51 µM, respectively. Besides, the CC50 in the data set on BHK-pD2hRucPac cells was determined as 137 µM.

Consider `O=C1NC(=S)SC1=Cc1cccc(Cl)c1Cl` [BG333], for which the EC50 in data set [1] turned out to be 9 µM. Further, the Ki in data set [2] was determined as 7 µM; in data set [3], 12 µM. In addition, the CC50 in the data set with BHK-pD2hRucPac cells came out at 11 µM.

Regarding `CC(C(=O)O)N1C(=O)C(=Cc2ccc(Cl)cc2Cl)SC1=S` (centres unmarked) [BG133], the EC50 in data set [1] worked out at 126 µM. Moreover, the Ki was 7 µM in data set [2] and 14 µM in data set [3]. Further, in the data set with BHK-pD2hRucPac cells, the CC50 is 77 µM.

On to `CN1C(=O)S/C(=C\c2ccc(-c3ccc(C(=O)O)c(Cl)c3)o2)C1=O` [BG175], for which the EC50 in data set [1] is 78 µM. Besides, the Ki in data set [2] is 13 µM; in data set [3], 17 µM. Also, the CC50 with BHK-pD2hRucPac cells is 82 µM.

Take `Cc1cccc(/C=C2\SC(=S)N(CN3CCCCC3)C2=O)c1` [BG136]: in data set [1], the EC50 turned out to be 41 µM. For the same compound, the Ki in data set [2] was 16 µM; in data set [3], 27 µM. Besides, the CC50 in the data set on BHK-pD2hRucPac cells amounted to 49 µM.

As to `CC(C)N1C(=O)SC(=Cc2ccccc2OCc2ccc(C(=O)O)cc2)C1=O` [BG166], the EC50 in data set [1] was found to be 28 µM. Also, the Ki in data set [2] was determined as 7 µM; in data set [3] it was 14 µM. Further, the CC50 in the data set on BHK-pD2hRucPac cells worked out at 33 µM.

As to `O=C1NC(=O)C(=Cc2ccc(Br)cc2)S1` [BG143], in data set [1], the EC50 was 50 µM. Besides, the Ki in data set [2] stood at 20 µM; in data set [3], 24 µM. Moreover, the CC50 in the data set with BHK-pD2hRucPac cells was 60 µM.

In the case of `COc1ccccc1C=C1SC(=S)N(C(Cc2ccccc2)C(=O)O)C1=O` (racemic) [BG101], the EC50 in data set [1] is 42 µM. For the same compound, the Ki in data set [2] was 9 µM; in data set [3], 8 µM. Also, in the data set with BHK-pD2hRucPac cells, the CC50 was found to be 46 µM.
